Reference: ChEMBL document CHEMBL1687711
Activity calls are given as the source filed them.

How the values were obtained:
Aspergillus fumigatus [1] = experiment: Antifungal activity against Aspergillus fumigatus AF4215 hyphae assessed as hyphal damage at 0.1 ug/ml after 20 hrs by XTT assay; type: functional, organism-based
THP-1 [2] = experiment: Increase in NF-kappaB-mediated TLR2 protein expression in human THP1 cells co-incubated with Aspergillus fumigatus hyphae at 0.5 ug/ml after 6 hrs by Western blot analysis; type: cell-based
Aspergillus fumigatus [3] = experiment: Antifungal activity against Aspergillus fumigatus AF4215 hyphae co-incubated with monocytes assessed as hyphal damage at 0.1 ug/ml after 6 hrs by XTT assay; type: functional, organism-based
THP-1 [4] = experiment: Effect on TLR4 mRNA expression in human THP1 cells co-incubated with Aspergillus fumigatus hyphae at 0.5 ug/ml after 6 hrs by RT-PCR analysis; type: functional, cell-based
Aspergillus fumigatus [5] = experiment: Antifungal activity against Aspergillus fumigatus AF4215 hyphae co-incubated with human THP1 cells assessed as hyphal damage at 0.1 ug/ml after 6 hrs by XTT assay; type: functional, organism-based; details: THP-1
THP-1 [6] = experiment: Effect on TLR4 protein expression in human THP1 cells at 0.5 ug/ml after 6 hrs by Western blot analysis; type: functional, cell-based
THP-1 [7] = experiment: Increase in NF-kappaB-mediated TLR2 protein expression in human THP1 cells at 0.5 ug/ml after 6 hrs by Western blot analysis; type: cell-based
THP-1 [8] = experiment: Effect on TLR4 mRNA expression in human THP1 cells at 0.5 ug/ml after 6 hrs by RT-PCR analysis; type: functional, cell-based
THP-1 [9] = experiment: Increase in NF-kappaB-mediated TNF-alpha mRNA expression in human THP1 cells co-incubated with Aspergillus fumigatus hyphae at 0.5 ug/ml after 6 hrs by RT-PCR analysis; type: cell-based
THP-1 [10] = experiment: Increase in NF-kappaB-mediated TNF-alpha mRNA expression in human THP1 cells at 0.5 ug/ml after 6 hrs by RT-PCR analysis; type: cell-based
THP-1 [11] = experiment: Increase in NF-kappaB-mediated TLR2 mRNA expression in human THP1 cells at 0.5 ug/ml after 6 hrs by RT-PCR analysis; type: cell-based
Aspergillus fumigatus [12] = experiment: Antifungal activity against Aspergillus fumigatus AF4215 hyphae co-incubated with human monocytes assessed as hyphal damage at 0.1 ug/ml after 20 hrs by XTT assay; type: functional, organism-based
THP-1 [13] = experiment: Increase in NF-kappaB-mediated TLR2 mRNA expression in human THP1 cells co-incubated with Aspergillus fumigatus hyphae at 0.5 ug/ml after 6 hrs by RT-PCR analysis; type: cell-based
THP-1 [14] = experiment: Effect on TLR4 protein expression in human THP1 cells co-incubated with Aspergillus fumigatus hyphae at 0.5 ug/ml after 6 hrs by Western blot analysis; type: functional, cell-based

Measured: Activity

C[C@@H](c1ncncc1F)[C@](O)(Cn1cncn1)c1ccc(F)cc1F
inactive: THP-1 [4] | THP-1 [6] | THP-1 [8] | THP-1 [14]
active: all other assays above
